One series concerns RS4;11 cells. The series can be described thus: Cell viability assay (CellTiter-Glo) in RS4;11 cell line. The note with it: 24 hours, 10% Human Serum, 50% decrease in cell viability. It is filed as cell-based. The essentials:
(§1)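 RS4;11 or Molt-4 cells (3000 per well) in RPMI 1640 with 10% human serum treated with compound for 24 h, 5% CO2. Viability measured by CellTiter-Glo as percent of control; EC50 from sigmoidal dose-response curves.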
(In ATP-based viability assays light output follows the ATP content of the culture.)

The nature of series [1]: Bioavailability study: pharmacokinetics after single intravenous or oral dose in mouse. It is filed as in vivo. The note with it: for Vd: read-out: VSS. As to the method: Studies were conducted to evaluate the pharmacokinetic profiles of Example 25 herein and Example 2 in WO 2019/040550 after single intravenous or oral dose in mouse. CD-1 mice (male) were obtained from Charles River Laboratories (Wilmington, MA).
The pharmacokinetics of Example 25 herein and Example 2 in WO 2019/040550 were evaluated following single 1 mg/kg intravenous or oral doses in mouse. Example 25 herein and Example 2 in WO 2019/040550 were prepared as a solution in DMSO: Tween 80: PEG-400: Dextrose 5% in Water (5:5:20:70, v/v) for the IV and oral dose mouse studies. The intravenous dose was administered as a slow bolus to the penile vein under isoflurane anesthesia. The oral doses were administrated by gavage. Serial blood samples were obtained […], 0.25, 0.5, 1.0, 4, 6, 9, 12, 24, 32 and 48 hours post dosing and […]. Plasma was separated by centrifugation and stored frozen (<−15° C.) until analysis.
HPLC-MS/MS bioanalytical methods were utilized for the quantitation of Example 25 herein and Example 2 in WO 2019/040550 concentration in plasma. The analytical methods used protein precipitation to extract compound from plasma. All samples were combined with a minimum two volume equivalents of organic solvent containing internal standard, vortexed and then centrifuged to pellet the proteins. Supernatants were used for subsequent analysis by liquid chromatography-tandem mass spectrometry (LC-MS/MS). Studies involving quantitative analysis employed spiked standards in plasma that were processed simultaneously with the samples.
Analytes were separated using reverse phase chromatography on a C8 or C18 column prior to analysis on an API5500™ (or higher) mass spectrometer with a Turbo-Ion Spray source. Peak areas were determined using Sciex Analyst™ 1.6 (or higher) software or Sound Analytics DiscoveryQuant™ 2.0 (or higher) software. Actual concentrations (when required) were calculated by regression analysis of the peak area ratio (parent/internal standard) of the spiked standards versus concentrations.
Peak plasma concentrations (Cm) and the time to peak plasma concentration (Tmax) were determined directly from the plasma concentration data for each animal. The compound plasma concentration data were submitted to multi-exponential curve fitting using WinNonlin software. The area under the plasma concentration-time curve from 0 to t hours after dosing (AUC0-t, t=time of the last measurable plasma concentration) was calculated using the linear trapezoidal rule. The residual area extrapolated to infinity, determined as the final measured plasma concentration (Ct) divided by the terminal plasma elimination rate constant (β), was added to the AUC0-t to produce the total area under the curve (AUC0-∞). The apparent total plasma clearance (CLp) was calculated by dividing the administered dose by the AUC0-∞. Half-life (t1/2) was determined with the following calculation: t1/2=ln (2)/elimination rate constant. The initial volume of distribution (Vc) was calculated as the dose divided by the extrapolated concentration at time=0 (C0). The volume of distribution at steady state, Vss, was estimated as a product of the total plasma clearance (CLp) and the mean residence time (MRT); the terminal-phase volume of distribution, Vβ, was derived from the total plasma clearance value (CLp) divided by the terminal plasma elimination rate constant (β). Oral bioavailability (F) was calculated as the dose-normalized AUC0-∞ (AUC0-∞/D) from the oral dose divided by the corresponding dose normalized AUC0-∞ from intravenous dosing.

The test system of a further series is Molt-4 cells. The series can be described thus: Cell viability counter screen assay (CellTiter-Glo) in Molt-4 cells. The class given is cell-based. The note with it: 24 hours, 10% Human Serum, 50% decrease in cell viability. The essentials:
as §1
A general note: A counterscreen serves to expose hits that act by an unwanted route or on another target.

Setting [2] is: male, CD-1, mouse, plasma, iv, 1 mg/kg, IV 1 mg/kg, individual animal.
Setting [3] is: male, CD-1, mouse, plasma, iv, 1 mg/kg, IV 1 mg/kg, mean.
Where [4] appears, read: male, CD-1, mouse, plasma, po, 1 mg/kg, PO 1 mg/kg, individual animal.
Where [5] appears, read: male, CD-1, mouse, plasma, po, 1 mg/kg, PO 1 mg/kg, mean.

“And” between values parts separate entries of the source, which are not always exact repeats. Equal entries are not always repeated. Where two headings read alike, the source gives them in different places.

For orientation: EC50 means the concentration that produces a half-maximal response. Higher therefore signals weaker potency. The term Tmax denotes the time from dosing to the highest level. Broadly, the AUC is concentration integrated over time. Read a high AUC as high exposure. A word on the MRT: it is a mean duration of stay, worked out from the concentration-time curve. For orientation: half-life means how long it takes for the measured level to halve. High values mean slow loss, low ones fast loss. As a reminder, the Cmax is the maximum level reached in the sampled fluid or tissue. Broadly, the bioavailability is dose-corrected exposure relative to a reference, in per cent. As for `CO[C@@H]1CC[C@@H](CNc2ccc(S(=O)(=O)NC(=O)c3ccc(N4CCN5CC6=C(c7ccc(Cl)cc7)CC(C)(C)C[C@H]6OCCCOC[C@@H]5C4)cc3N3CCCOc4nc5[nH]ccc5cc43)cc2[N+](=O)[O-])OC1` [Example 25, 4-((4aS,10aR)-14-(4-chlorophenyl)-12,12-dimethyl-1,2,4a,5,8,9,10a,11,13,15-decahydro-7H,12H-benzo[f]pyrazino[2,1-c][1,8]dioxa[4]azacycloundecin-3(4H)-yl)-2-(3,4-dihydro-2H-pyrrolo[3′,2′:5,6]pyrido[2,3-b][1,4]oxazepin-1(7H)-yl)-N-((4-((((2S,5R)-5-methoxytetrahydro-2H-pyran-2-yl)methyl)amino)-3-nitrophenyl)sulfonyl)benzamide], the EC50 in the series on RS4;11 cells was 1.79 nM; in the series with Molt-4 cells, 1280 nM. In addition, the Vβ was 0.95 L/kg and 1.0 L/kg and 0.90 L/kg in series [1] (IV 1 mg/kg, plasma, individual animal); 0.96 L/kg in series [1] (IV 1 mg/kg, plasma, mean). In addition, in series [1] (male, CD-1, PO 1 mg/kg, plasma, individual animal), the Tmax came out at 4 h. For the same compound, the exposure (AUC) in series [1] (setting [2]) stood at 15800 ng·h/mL; in series [1] (setting [3]), 13300 ng·h/mL; in series [1] (setting [4]), 3580 ng·h/mL; in series [1] (setting [5]), 4130 ng·h/mL. For the same compound, the C0 amounted to 4010 ng/mL in series [1] (setting [2]) and 4160 ng/mL in series [1] (setting [3]). Also, the MRT in series [1] (setting [2]) amounted to 12 h; in series [1] (setting [3]), 11 h. Moreover, the half-life in series [1] (setting [2]) is 10 h; in series [1] (setting [4]), 7.5 h. The clearance in series [1] (male, CD-1, mouse, plasma, iv, 1 mg/kg, IV 1 mg/kg, plasma, individual animal, read-out: CLP (converted)) is 1.05 mL/min/kg. Moreover, the Vd was determined as 0.78 L/kg in series [1] (male, CD-1, mouse, plasma, iv, 1 mg/kg, IV 1 mg/kg, plasma, individual animal) and 0.82 L/kg in series [1] (male, CD-1, mouse, plasma, iv, 1 mg/kg, IV 1 mg/kg, plasma, mean). The Cmax in series [1] (setting [4]) is 210 ng/mL; in series [1] (setting [5]) it was 254 ng/mL. The bioavailability in series [1] (male, CD-1, plasma, PO 1 mg/kg vs IV 1 mg/kg, mean, read-out: F (oral bioavailability)) came out at 31%.
For `CC1(C)CC(c2ccc(Cl)cc2)=C2CN3CCN(c4ccc(C(=O)NS(=O)(=O)c5ccc(NC[C@H]6CC[C@H](N7CCOCC7)CO6)c([N+](=O)[O-])c5)c(N5CCCOc6nc7[nH]ccc7cc65)c4)C[C@H]3COCCCO[C@@H]2C1` [Example 37, 4-((4aS,10aR)-14-(4-chlorophenyl)-12,12-dimethyl-1,2,4a,5,8,9,10a,11,13,15-decahydro-7H,12H-benzo[f]pyrazino[2,1-c][1,8]dioxa[4]azacycloundecin-3(4H)-yl)-2-(3,4-dihydro-2H-pyrrolo[3′,2′:5,6]pyrido[2,3-b][1,4]oxazepin-1(7H)-yl)-N-((4-((((2R,5S)-5-morpholinotetrahydro-2H-pyran-2-yl)methyl)amino)-3-nitrophenyl)sulfonyl)benzamide], the EC50 with RS4;11 cells stood at 1.05 nM; in the series with Molt-4 cells, 1450 nM.
The matching figures for `CC1(C)CC(c2ccc(Cl)cc2)=C2CN3CCN(c4ccc(C(=O)NS(=O)(=O)c5ccc(NCC6(F)CCN(C7COC7)CC6)c([N+](=O)[O-])c5)c(N5CCCOc6nc7[nH]ccc7cc65)c4)C[C@H]3COCCCO[C@@H]2C1` [Example 39, 4-((4aS,10aR)-14-(4-chlorophenyl)-12,12-dimethyl-1,2,4a,5,8,9,10a,11,13,15-decahydro-7H,12H-benzo[f]pyrazino[2,1-c][1,8]dioxa[4]azacycloundecin-3(4H)-yl)-2-(3,4-dihydro-2H-pyrrolo[3′,2′:5,6]pyrido[2,3-b][1,4]oxazepin-1(7H)-yl)-N-((4-(((4-fluoro-1-(oxetan-3-yl)piperidin-4-yl)methyl)amino)-3-nitrophenyl)sulfonyl)benzamide]: 1.66 nM and 453 nM.
For `CO[C@H]1CC[C@H](COc2ccc(S(=O)(=O)NC(=O)c3ccc(N4CCN5CC6=C(c7ccc(Cl)cc7)CC(C)(C)C[C@H]6OCCCOC[C@@H]5C4)cc3N3CCCOc4nc5[nH]ccc5cc43)cc2Cl)OC1` [Example 40, N-((3-chloro-4-(((2R,5S)-5-methoxytetrahydro-2H-pyran-2-yl)methoxy)phenyl)sulfonyl)-4-((4aS,10aR)-14-(4-chlorophenyl)-12,12-dimethyl-1,2,4a,5,8,9,10a,11,13,15-decahydro-7H,12H-benzo[f]pyrazino[2,1-c][1,8]dioxa[4]azacycloundecin-3(4H)-yl)-2-(3,4-dihydro-2H-pyrrolo[3′,2′:5,6]pyrido[2,3-b][1,4]oxazepin-1(7H)-yl)benzamide], in that order: 24.5 nM and > 10000 nM.
For `CO[C@H]1C[C@H](CNc2ccc(S(=O)(=O)NC(=O)c3ccc(N4CCN5CC6=C(c7ccc(Cl)cc7)CC(C)(C)C[C@H]6OCCCOC[C@@H]5C4)cc3N3CCCOc4nc5[nH]ccc5cc43)cc2[N+](=O)[O-])C1` [Example 41, 4-((4aS,10aR)-14-(4-chlorophenyl)-12,12-dimethyl-1,2,4a,5,8,9,10a,11,13,15-decahydro-7H,12H-benzo[f]pyrazino[2,1-c][1,8]dioxa[4]azacycloundecin-3(4H)-yl)-2-(3,4-dihydro-2H-pyrrolo[3′,2′:5,6]pyrido[2,3-h][1,4]oxazepin-1(7H)-yl)-N-((4-((((1r,3r)-3-methoxycyclobutyl)methyl)amino)-3-nitrophenyl)sulfonyl)benzamide], in that order: 3.93 nM and > 10000 nM.
Take `CC1(C)CC(c2ccc(Cl)cc2)=C2CN3CCN(c4ccc(C(=O)NS(=O)(=O)c5ccc(OCC6CCOCC6)c([N+](=O)[O-])c5)c(N5CCCOc6nc7[nH]ccc7cc65)c4)C[C@H]3COCCCO[C@@H]2C1` [Example 46, 4-((4aS,10aR)-14-(4-chlorophenyl)-12,12-dimethyl-1,2,4a,5,8,9,10a,11,13,15-decahydro-7H,12H-benzo[f]pyrazino[2,1-c][1,8]dioxa[4]azacycloundecin-3(4H)-yl)-2-(3,4-dihydro-2H-pyrrolo[3′,2′:5,6]pyrido[2,3-b][1,4]oxazepin-1(7H)-yl)-N-((3-nitro-4-((tetrahydro-2H-pyran-4-yl)methoxy)phenyl)sulfonyl)benzamide]: the EC50 in the series on RS4;11 cells is 9.36 nM; with Molt-4 cells, > 10000 nM.
For `CC1(C)CC(c2ccc(Cl)cc2)=C2CN3CCN(c4ccc(C(=O)NS(=O)(=O)c5ccc(OC[C@H]6CC[C@@](C)(O)CC6)c([N+](=O)[O-])c5)c(N5CCCOc6nc7[nH]ccc7cc65)c4)C[C@H]3COCCCO[C@@H]2C1` [Example 49, 4-((4aS,10aR)-14-(4-chlorophenyl)-12,12-dimethyl-1,2,4a,5,8,9,10a,11,13,15-decahydro-7H,12H-benzo[f]pyrazino[2,1-c][1,8]dioxa[4]azacycloundecin-3(4H)-yl)-2-(3,4-dihydro-2H-pyrrolo[3′,2′:5,6]pyrido[2,3-b][1,4]oxazepin-1(7H)-yl)-N-((4-(((1s,4s)-4-hydroxy-4-methylcyclohexyl)methoxy)-3-nitrophenyl)sulfonyl)benzamide], in that order: 25 nM and 36 nM.
